Patent US10995103B2, “Substituted boric acid compound, pharmaceutical composition comprising same, and application thereof” (Shenzhen TargetRx, Inc., priority 2016, dated 2021)

Legend:
[1] = Metabolic stability evaluation in rat liver microsomes; type: in vitro ADME; conditions: SD, pH 7.4, rat liver microsomes 0.5 mg/mL, compound 1 μM, NADPH, 37° C.; for microsomal CLint at 1 μM: read-out: CLint, experiment in rat liver microsomes; for half-life at 1 μM: read-out: t1/2, experiment in rat liver microsomes
Experimental: (§1) Experiments in microsomes: Human liver microsomes: 0.5 mg/mL, Xenotech; Rat liver microsomes: 0.5 mg/mL, Xenotech; Coenzyme (NADPH/NADH): 1 mM, Sigma Life Science; Magnesium chloride: 5 mM, 100 mM phosphate buffer (pH 7.4).
(§2) Preparation of stock solution: A certain amount of powder of the example compounds was accurately weighed and dissolved in DMSO to 5 mM respectively.
(§3) Preparation of phosphate buffer (100 mM, pH7.4): A pre-formulated 150 mL potassium dihydrogen phosphate (0.5 M) was mixed with 700 mL of dibasic potassium phosphate (0.5M). The pH of the mixture was adjusted to 7.4 with 0.5 M dibasic potassium phosphate solution. The mixture was diluted 5-fold with ultrapure water before use, and magnesium chloride was added to obtain the phosphate buffer (100 mM) containing 100 mM potassium phosphate, 3.3 mM magnesium chloride, pH 7.4.
(§4) A NADPH regeneration system solution (containing 6.5 mM NADP, 16.5 mM G-6-P, 3 U/mL G-6-P D, 3.3 mM magnesium chloride) was prepared and placed on wet ice before use.
(§5) Preparation of stop solution: acetonitrile solution containing 50 ng/mL propranolol hydrochloride and 200 ng/mL tolbutamide (internal standard). 25057.5 μL of phosphate buffer (pH 7.4) was taken into a 50 mL centrifuge tube, to which 812.5 μL human liver microsomes were added, respectively, and mixed to obtain a liver microsome dilution solution with a protein concentration of 0.625 mg/mL. 25057.5 μL of phosphate buffer (pH 7.4) was taken into a 50 mL centrifuge tube, to which 812.5 μL SD rat liver microsomes were added, respectively, and mixed to obtain a liver microsome dilution solution with a protein concentration of 0.625 mg/mL.
(§6) Incubation of the samples: The stock solution of the respective compounds was respectively diluted to 0.25 mM with an aqueous solution containing 70% acetonitrile, which were used as working solutions, ready for use. 398 μL of the dilution solution of human liver microsomes or rat liver microsomes were added to a 96-well incubation plate (N=2), respectively, and 2 μL of 0.25 mM working solution was added and mixed.
(§7) Metabolic stability assay: 300 μL of pre-chilled stop solution was added to each well of a 96-well deep well plate and placed on ice as the stop plate. The 96 well incubation plate and NADPH regeneration system were placed in a 37° C. water bath box, shaken at 100 rpm and pre-incubated for 5 min. 80 μL of incubation solution was taken out from each well of the incubation plate and added to the stop plate, mixed, and replenished with 20 μL of NADPH regeneration system solution as a 0-min sample. 80 μL of NADPH regeneration system solution was added to each well of the incubation plate to start the reaction and counting was started. […] 100 μL of the reaction solution was taken at 10, 30, and 90 min after reaction, respectively, added to the stop plate, and vortexed for 3 minutes to terminate the reaction. The stop plate was centrifuged for 4 min at 5000× g at 4° C. 100 μL of the supernatant was added to a 96-well plate to which 100 μL of distilled water was previously added, mixed, and analyzed by LC-MS/MS.
(§8) Data analysis: The peak areas of the corresponding compounds and internal standard were detected by LC-MS/MS system, and the ratio of the peak area of the compounds to the internal standard was calculated.
(§9) The metabolic stability in human and rat liver microsomes was evaluated by simultaneously testing and comparing the compounds disclosed herein and the non-deuterated compound. The non-deuterated compound Ixazomib was used as a control in the table.

[2] = Metabolic stability evaluation in human liver microsomes; type: in vitro ADME; conditions: pH 7.4, human liver microsomes 0.5 mg/mL, compound 1 μM, NADPH, 37° C.; for microsomal CLint at 1 μM: read-out: CLint, experiment in human liver microsomes; for half-life at 1 μM: read-out: t1/2, experiment in human liver microsomes
Experimental: as §1, §2, §3, §4, §5, §6, §7, §8, §9

Structure (SMILES)	microsomal CLint at 1 μM [1] [µL/min/mg]	half-life at 1 μM [1] [min]	microsomal CLint at 1 μM [2] [µL/min/mg]	half-life at 1 μM [2] [min]
[2H]C([2H])(NC(=O)c1cc(Cl)ccc1Cl)C(=O)N[C@@H](CC(C)C)B(O)O [Compound I-1, (R)-(1-(2-(2,5-dichlorobenzamido)-2,2-d2-acetamido)-3-methylbutyl)boronic acid]	81.3	17.1		
CC(C)C[C@H](NC(=O)CNC(=O)c1cc(Cl)ccc1Cl)B(O)O [Ixazomib, reference compound]	97.3	14.3	49.4	28.1
[2H]C([2H])(C(C)C)[C@H](NC(=O)CNC(=O)c1cc(Cl)ccc1Cl)B(O)O [Compound I-3, (R)-(1-(2-(2,5-dichlorobenzamido)acetamido)-2,2-d2-3-methylbutyl)boronic Acid]			47.3	29.3
[2H][C@@](CC(C)C)(NC(=O)CNC(=O)c1cc(Cl)ccc1Cl)B(O)O [Compound I-2, (R)-(1-(2-(2,5-dichlorobenzamido)acetamido)-1-d-3-methylbutyl)boronic Acid]	90.5	15.3	46.5	29.8
[2H]C([2H])(C(C)C)[C@]([2H])(NC(=O)CNC(=O)c1cc(Cl)ccc1Cl)B(O)O [Compound I-5, (R)-(1-(2-(2,5-dichlorobenzamido)acetamido)-1-d-2,2-d2-3-methylbutyl)boronic Acid]	97.8	14.2	47.3	29.3
[2H]C([2H])(NC(=O)c1cc(Cl)ccc1Cl)C(=O)N[C@@]([2H])(CC(C)C)B(O)O [Compound I-4, (R)-(1-(2-(2,5-dichlorobenzamido)-2,2-d2-acetamido)-1-d-3-methylbutyl)boronic Acid]	90	15.4	48.3	28.7
